Experimental data reported in PubChem BioAssay (NCI).
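Cultured in 96-well plates, cells were exposed to test compound for 48 hours across five concentrations. Definition used: TGI = concentration required for complete inhibition of growth.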

Key:
Assay in all cases: inhibition of tumour cell growth, NCI panel, 48 h
786-0 renal = system: 786-0 renal
A498 renal = system: A498 renal
A549 NSCLC = system: A549 NSCLC
ACHN renal = system: ACHN renal
CAKI-1 renal = system: CAKI-1 renal
CCRF-CEM leukemia = system: CCRF-CEM leukemia
COLO 205 colon = system: COLO 205 colon
DLD-1 colon = system: DLD-1 colon
DMS 114 small cell lung = system: DMS 114 small cell lung
EKVX NSCLC = system: EKVX NSCLC
HCC-2998 colon = system: HCC-2998 colon
HCT-116 colon = system: HCT-116 colon
HCT-15 colon = system: HCT-15 colon
HL-60(TB) leukemia = system: HL-60(TB) leukemia
HOP-18 NSCLC = system: HOP-18 NSCLC
HOP-62 NSCLC = system: HOP-62 NSCLC
HT29 colon = system: HT29 colon
IGROV1 ovarian = system: IGROV1 ovarian
K-562 leukemia = system: K-562 leukemia
KM12 colon = system: KM12 colon
KM20L2 colon = system: KM20L2 colon
LOX IMVI melanoma = system: LOX IMVI melanoma
LXFL 529 NSCLC = system: LXFL 529 NSCLC
M14 melanoma = system: M14 melanoma
M19-MEL melanoma = system: M19-MEL melanoma
MALME-3M melanoma = system: MALME-3M melanoma
MOLT-4 leukemia = system: MOLT-4 leukemia
NCI-H226 lung = system: NCI-H226 lung
NCI-H23 lung = system: NCI-H23 lung
NCI-H460 lung = system: NCI-H460 lung
NCI-H522 lung = system: NCI-H522 lung
OVCAR-3 ovarian = system: OVCAR-3 ovarian
OVCAR-4 ovarian = system: OVCAR-4 ovarian
OVCAR-5 ovarian = system: OVCAR-5 ovarian
OVCAR-8 ovarian = system: OVCAR-8 ovarian
RPMI-8226 leukemia = system: RPMI-8226 leukemia
RXF 393 renal = system: RXF 393 renal
SF-268 CNS = system: SF-268 CNS
SF-295 CNS = system: SF-295 CNS
SF-539 CNS = system: SF-539 CNS
SK-MEL-2 melanoma = system: SK-MEL-2 melanoma
SK-MEL-28 melanoma = system: SK-MEL-28 melanoma
SK-MEL-5 melanoma = system: SK-MEL-5 melanoma
SK-OV-3 ovarian = system: SK-OV-3 ovarian
SN12C renal = system: SN12C renal
SNB-19 CNS = system: SNB-19 CNS
SNB-75 CNS = system: SNB-75 CNS
SNB-78 CNS = system: SNB-78 CNS
SR leukemia = system: SR leukemia
SW-620 colon = system: SW-620 colon
TK-10 renal = system: TK-10 renal
U251 CNS = system: U251 CNS
UACC-257 melanoma = system: UACC-257 melanoma
UACC-62 melanoma = system: UACC-62 melanoma
UO-31 renal = system: UO-31 renal
XF 498 CNS = system: XF 498 CNS
DMS 273 small cell lung = system: DMS 273 small cell lung
HOP-92 NSCLC = system: HOP-92 NSCLC

Measured: TGI

Cc1ccc(NC(=O)C(=O)Cc2cccc[n+]2[O-])cc1C
> 100 µM: 786-0 renal | A498 renal | A549 NSCLC | ACHN renal | CAKI-1 renal | CCRF-CEM leukemia | COLO 205 colon | DLD-1 colon | DMS 114 small cell lung | EKVX NSCLC | HCC-2998 colon | HCT-116 colon | HCT-15 colon | HL-60(TB) leukemia | HOP-18 NSCLC | HOP-62 NSCLC | HT29 colon | IGROV1 ovarian | K-562 leukemia | KM12 colon | KM20L2 colon | LOX IMVI melanoma | LXFL 529 NSCLC | M14 melanoma | M19-MEL melanoma | MALME-3M melanoma | MOLT-4 leukemia | NCI-H226 lung | NCI-H23 lung | NCI-H460 lung | NCI-H522 lung | OVCAR-3 ovarian | OVCAR-4 ovarian | OVCAR-5 ovarian | OVCAR-8 ovarian | RPMI-8226 leukemia | RXF 393 renal | SF-268 CNS | SF-295 CNS | SF-539 CNS | SK-MEL-2 melanoma | SK-MEL-28 melanoma | SK-MEL-5 melanoma | SK-OV-3 ovarian | SN12C renal | SNB-19 CNS | SNB-75 CNS | SNB-78 CNS | SR leukemia | SW-620 colon | TK-10 renal | U251 CNS | UACC-257 melanoma | UACC-62 melanoma | UO-31 renal | XF 498 CNS

C(=C\c1c2oc(-c3ccccc3)cc(-c3ccccc3)c-2c2ccccc12)/C=C1\c2ccccc2-c2c(-c3ccccc3)cc(-c3ccccc3)[o+]c21
> 100 µM: 786-0 renal | A498 renal | A549 NSCLC | ACHN renal | CCRF-CEM leukemia | COLO 205 colon | DLD-1 colon | DMS 114 small cell lung | DMS 273 small cell lung | EKVX NSCLC | HCC-2998 colon | HCT-116 colon | HCT-15 colon | HL-60(TB) leukemia | HOP-62 NSCLC | HOP-92 NSCLC | HT29 colon | IGROV1 ovarian | K-562 leukemia | KM20L2 colon | LOX IMVI melanoma | LXFL 529 NSCLC | M14 melanoma | M19-MEL melanoma | MALME-3M melanoma | MOLT-4 leukemia | NCI-H226 lung | NCI-H23 lung | NCI-H460 lung | NCI-H522 lung | OVCAR-3 ovarian | OVCAR-4 ovarian | OVCAR-5 ovarian | OVCAR-8 ovarian | RPMI-8226 leukemia | RXF 393 renal | SF-268 CNS | SF-295 CNS | SF-539 CNS | SK-MEL-2 melanoma | SK-MEL-28 melanoma | SK-MEL-5 melanoma | SK-OV-3 ovarian | SN12C renal | SNB-19 CNS | SNB-75 CNS | SNB-78 CNS | SR leukemia | SW-620 colon | TK-10 renal | U251 CNS | UACC-257 melanoma | UACC-62 melanoma | UO-31 renal | XF 498 CNS
